Key:
Format in all cases: binding
[1] = biological target: kinases (KINOMEscan panel) (Homo sapiens, UniProt P36894); conditions: kinase BMPR1A; NEW KINOMEscan
[2] = biological target: kinases (KINOMEscan panel) (Homo sapiens, UniProt Q86Y07); conditions: NEW KINOMEscan
[3] = biological target: kinases (KINOMEscan panel) (Homo sapiens, UniProt O75460); conditions: NEW KINOMEscan
[4] = biological target: kinases (KINOMEscan panel) (Homo sapiens, UniProt P00533, L858R); conditions: kinase EGFR(L858R); NEW KINOMEscan
Chain of kinases (KINOMEscan panel) (Homo sapiens, UniProt P00533, L858R) (P00533 25-1210 L858R): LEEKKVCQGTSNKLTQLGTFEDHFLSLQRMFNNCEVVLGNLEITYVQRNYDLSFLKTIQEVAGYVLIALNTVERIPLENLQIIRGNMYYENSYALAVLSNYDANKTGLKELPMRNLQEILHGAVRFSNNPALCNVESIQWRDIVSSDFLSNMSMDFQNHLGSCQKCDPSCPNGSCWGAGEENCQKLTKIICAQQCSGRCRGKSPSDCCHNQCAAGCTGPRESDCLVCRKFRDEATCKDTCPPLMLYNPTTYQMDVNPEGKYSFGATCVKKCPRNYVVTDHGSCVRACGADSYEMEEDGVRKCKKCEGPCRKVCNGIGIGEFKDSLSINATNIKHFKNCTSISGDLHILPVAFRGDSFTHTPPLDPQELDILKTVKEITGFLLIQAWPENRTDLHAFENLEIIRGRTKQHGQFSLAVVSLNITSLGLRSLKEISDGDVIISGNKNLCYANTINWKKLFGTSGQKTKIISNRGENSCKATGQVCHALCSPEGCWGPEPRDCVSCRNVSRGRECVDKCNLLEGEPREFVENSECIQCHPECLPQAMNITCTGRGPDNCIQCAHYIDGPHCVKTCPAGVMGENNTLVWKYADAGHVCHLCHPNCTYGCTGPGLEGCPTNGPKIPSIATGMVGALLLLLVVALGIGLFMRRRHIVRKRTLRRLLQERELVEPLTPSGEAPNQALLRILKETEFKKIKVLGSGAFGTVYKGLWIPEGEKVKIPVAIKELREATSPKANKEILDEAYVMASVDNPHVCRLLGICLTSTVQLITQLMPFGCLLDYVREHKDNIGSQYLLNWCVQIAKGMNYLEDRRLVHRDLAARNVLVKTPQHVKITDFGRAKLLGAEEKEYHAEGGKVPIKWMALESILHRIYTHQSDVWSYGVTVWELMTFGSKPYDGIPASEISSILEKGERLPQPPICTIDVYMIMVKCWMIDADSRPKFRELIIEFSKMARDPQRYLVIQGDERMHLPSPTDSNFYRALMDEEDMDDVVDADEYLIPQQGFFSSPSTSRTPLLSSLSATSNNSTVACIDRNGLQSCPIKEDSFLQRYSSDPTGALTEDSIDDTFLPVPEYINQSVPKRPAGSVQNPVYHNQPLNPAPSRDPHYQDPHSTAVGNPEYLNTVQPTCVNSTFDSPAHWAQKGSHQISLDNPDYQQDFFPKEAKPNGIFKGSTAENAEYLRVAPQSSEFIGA

[5] = biological target: kinases (KINOMEscan panel) (Homo sapiens, UniProt Q9UQM7); conditions: kinase CAMK2A; NEW KINOMEscan
Chain of kinases (KINOMEscan panel) (Homo sapiens, UniProt Q9UQM7) (Q9UQM7 whole entry): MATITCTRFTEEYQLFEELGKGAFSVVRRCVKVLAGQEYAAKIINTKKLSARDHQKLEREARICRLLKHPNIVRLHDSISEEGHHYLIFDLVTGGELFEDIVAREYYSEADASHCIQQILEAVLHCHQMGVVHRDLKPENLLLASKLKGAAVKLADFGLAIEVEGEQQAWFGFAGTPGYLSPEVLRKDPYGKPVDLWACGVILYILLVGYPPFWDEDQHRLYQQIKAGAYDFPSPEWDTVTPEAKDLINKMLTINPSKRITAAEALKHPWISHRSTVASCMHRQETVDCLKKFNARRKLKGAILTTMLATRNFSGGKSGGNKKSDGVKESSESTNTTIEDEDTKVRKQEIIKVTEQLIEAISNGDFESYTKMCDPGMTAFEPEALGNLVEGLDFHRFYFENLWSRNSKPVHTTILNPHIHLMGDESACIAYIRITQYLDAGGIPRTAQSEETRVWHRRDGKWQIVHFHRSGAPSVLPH

[6] = biological target: kinases (KINOMEscan panel) (Homo sapiens, UniProt Q8TDR2); conditions: STK35; NEW KINOMEscan
Chain of kinases (KINOMEscan panel) (Homo sapiens, UniProt Q8TDR2) (Q8TDR2 whole entry): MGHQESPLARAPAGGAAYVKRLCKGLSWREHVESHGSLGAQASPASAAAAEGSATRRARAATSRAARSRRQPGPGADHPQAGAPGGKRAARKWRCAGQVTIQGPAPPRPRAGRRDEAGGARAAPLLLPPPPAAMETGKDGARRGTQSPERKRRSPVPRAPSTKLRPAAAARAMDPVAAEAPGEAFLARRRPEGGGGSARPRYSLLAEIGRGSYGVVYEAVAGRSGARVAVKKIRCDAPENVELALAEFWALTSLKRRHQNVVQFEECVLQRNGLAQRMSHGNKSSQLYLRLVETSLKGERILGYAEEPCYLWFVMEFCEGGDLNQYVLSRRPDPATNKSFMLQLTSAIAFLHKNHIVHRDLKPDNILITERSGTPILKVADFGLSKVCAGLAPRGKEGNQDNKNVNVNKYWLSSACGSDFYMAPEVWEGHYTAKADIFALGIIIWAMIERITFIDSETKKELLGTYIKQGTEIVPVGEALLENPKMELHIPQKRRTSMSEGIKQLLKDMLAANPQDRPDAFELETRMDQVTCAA

[7] = biological target: T1, kinases (KINOMEscan panel) (Homo sapiens, UniProt Q6ZWH5); conditions: NEW KINOMEscan
T1 sequence (Q6ZWH5 1-1172): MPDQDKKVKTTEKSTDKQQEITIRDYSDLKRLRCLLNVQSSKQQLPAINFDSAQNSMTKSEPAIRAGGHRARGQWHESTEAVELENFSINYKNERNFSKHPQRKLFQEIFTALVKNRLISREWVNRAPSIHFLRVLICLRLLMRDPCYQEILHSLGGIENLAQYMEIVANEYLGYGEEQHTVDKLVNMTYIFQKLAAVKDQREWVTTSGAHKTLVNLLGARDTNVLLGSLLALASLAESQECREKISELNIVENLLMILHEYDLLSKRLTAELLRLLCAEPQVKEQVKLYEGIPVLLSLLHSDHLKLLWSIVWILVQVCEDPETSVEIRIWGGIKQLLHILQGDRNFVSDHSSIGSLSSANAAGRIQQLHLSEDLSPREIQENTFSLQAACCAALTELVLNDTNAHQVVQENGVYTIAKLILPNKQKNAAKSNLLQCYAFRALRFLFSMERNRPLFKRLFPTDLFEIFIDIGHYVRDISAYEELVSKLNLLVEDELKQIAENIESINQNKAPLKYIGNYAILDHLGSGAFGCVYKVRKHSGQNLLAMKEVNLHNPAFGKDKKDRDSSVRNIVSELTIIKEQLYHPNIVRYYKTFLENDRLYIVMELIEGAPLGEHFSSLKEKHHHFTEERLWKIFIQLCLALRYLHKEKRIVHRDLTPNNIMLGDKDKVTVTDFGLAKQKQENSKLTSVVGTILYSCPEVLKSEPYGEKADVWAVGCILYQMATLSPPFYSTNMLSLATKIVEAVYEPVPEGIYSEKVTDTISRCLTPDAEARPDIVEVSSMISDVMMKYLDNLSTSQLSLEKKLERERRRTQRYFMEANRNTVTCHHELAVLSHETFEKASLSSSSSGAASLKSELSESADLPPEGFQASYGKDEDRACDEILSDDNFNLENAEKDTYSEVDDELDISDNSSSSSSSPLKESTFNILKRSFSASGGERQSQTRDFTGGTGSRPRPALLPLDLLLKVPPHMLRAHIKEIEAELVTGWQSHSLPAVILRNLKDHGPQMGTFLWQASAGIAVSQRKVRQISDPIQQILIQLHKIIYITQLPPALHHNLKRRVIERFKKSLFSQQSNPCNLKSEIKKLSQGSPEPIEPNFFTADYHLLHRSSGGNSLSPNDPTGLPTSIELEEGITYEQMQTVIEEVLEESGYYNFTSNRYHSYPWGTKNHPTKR

[8] = biological target: kinases (KINOMEscan panel) (Homo sapiens, UniProt P49761); conditions: CLK3; NEW KINOMEscan
Chain of kinases (KINOMEscan panel) (Homo sapiens, UniProt P49761) (P49761 whole entry): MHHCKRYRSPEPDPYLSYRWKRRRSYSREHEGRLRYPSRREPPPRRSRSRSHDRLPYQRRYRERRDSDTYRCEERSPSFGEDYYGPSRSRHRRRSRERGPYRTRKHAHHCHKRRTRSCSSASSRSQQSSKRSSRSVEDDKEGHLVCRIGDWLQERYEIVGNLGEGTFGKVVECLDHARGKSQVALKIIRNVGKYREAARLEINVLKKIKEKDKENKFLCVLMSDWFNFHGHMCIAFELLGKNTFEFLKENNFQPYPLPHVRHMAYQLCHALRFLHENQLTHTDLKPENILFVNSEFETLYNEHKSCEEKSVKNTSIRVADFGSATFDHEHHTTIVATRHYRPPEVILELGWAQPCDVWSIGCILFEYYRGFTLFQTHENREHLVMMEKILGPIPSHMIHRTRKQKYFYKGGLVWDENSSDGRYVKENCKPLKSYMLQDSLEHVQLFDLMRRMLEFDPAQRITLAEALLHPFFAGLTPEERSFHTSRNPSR

[9] = biological target: T2, kinases (KINOMEscan panel) (Homo sapiens, UniProt P29323); conditions: EPHB2; NEW KINOMEscan
T2 sequence (P29323 19-1055): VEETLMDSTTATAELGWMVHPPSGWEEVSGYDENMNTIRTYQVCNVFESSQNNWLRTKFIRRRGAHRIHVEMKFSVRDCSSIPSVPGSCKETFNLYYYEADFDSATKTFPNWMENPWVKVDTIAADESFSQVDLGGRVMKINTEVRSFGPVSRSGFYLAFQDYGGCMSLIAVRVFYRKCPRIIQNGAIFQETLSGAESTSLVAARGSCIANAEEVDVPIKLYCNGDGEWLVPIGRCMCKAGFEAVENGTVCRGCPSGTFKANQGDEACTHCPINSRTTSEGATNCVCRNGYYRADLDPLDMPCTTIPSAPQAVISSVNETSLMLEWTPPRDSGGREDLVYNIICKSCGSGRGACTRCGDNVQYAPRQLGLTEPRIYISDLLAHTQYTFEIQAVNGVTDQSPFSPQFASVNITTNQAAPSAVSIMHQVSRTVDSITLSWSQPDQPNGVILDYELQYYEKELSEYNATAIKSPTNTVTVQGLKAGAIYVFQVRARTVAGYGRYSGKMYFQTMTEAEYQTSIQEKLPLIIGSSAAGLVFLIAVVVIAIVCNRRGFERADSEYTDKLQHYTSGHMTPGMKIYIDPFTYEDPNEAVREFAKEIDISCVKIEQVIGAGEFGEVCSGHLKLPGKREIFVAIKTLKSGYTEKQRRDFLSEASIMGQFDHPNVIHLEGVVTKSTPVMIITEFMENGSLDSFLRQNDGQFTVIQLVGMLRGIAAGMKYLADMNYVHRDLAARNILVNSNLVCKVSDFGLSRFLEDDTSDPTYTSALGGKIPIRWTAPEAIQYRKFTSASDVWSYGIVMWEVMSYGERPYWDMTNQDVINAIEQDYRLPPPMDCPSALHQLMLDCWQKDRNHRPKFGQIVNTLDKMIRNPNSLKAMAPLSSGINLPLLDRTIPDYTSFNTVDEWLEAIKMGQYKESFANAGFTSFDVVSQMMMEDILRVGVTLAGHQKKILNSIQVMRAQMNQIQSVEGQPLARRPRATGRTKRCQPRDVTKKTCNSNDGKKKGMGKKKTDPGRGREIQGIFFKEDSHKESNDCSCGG

Chain of kinases (KINOMEscan panel) (Homo sapiens, UniProt Q86Y07) (Q86Y07 whole entry): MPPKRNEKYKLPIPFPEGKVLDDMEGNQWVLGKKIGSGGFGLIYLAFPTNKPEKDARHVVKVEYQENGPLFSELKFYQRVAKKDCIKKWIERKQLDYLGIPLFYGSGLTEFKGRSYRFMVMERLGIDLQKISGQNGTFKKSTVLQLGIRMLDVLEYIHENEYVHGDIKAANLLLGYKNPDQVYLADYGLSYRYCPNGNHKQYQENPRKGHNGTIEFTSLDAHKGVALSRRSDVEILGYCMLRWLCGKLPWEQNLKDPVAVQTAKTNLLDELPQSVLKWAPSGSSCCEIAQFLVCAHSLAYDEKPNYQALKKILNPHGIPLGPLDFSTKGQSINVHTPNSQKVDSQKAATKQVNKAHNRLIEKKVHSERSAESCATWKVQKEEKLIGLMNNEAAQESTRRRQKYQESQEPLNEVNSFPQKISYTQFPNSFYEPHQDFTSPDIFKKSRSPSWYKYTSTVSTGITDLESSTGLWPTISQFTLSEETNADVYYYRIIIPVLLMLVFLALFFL
Chain of kinases (KINOMEscan panel) (Homo sapiens, UniProt O75460) (O75460 19-977): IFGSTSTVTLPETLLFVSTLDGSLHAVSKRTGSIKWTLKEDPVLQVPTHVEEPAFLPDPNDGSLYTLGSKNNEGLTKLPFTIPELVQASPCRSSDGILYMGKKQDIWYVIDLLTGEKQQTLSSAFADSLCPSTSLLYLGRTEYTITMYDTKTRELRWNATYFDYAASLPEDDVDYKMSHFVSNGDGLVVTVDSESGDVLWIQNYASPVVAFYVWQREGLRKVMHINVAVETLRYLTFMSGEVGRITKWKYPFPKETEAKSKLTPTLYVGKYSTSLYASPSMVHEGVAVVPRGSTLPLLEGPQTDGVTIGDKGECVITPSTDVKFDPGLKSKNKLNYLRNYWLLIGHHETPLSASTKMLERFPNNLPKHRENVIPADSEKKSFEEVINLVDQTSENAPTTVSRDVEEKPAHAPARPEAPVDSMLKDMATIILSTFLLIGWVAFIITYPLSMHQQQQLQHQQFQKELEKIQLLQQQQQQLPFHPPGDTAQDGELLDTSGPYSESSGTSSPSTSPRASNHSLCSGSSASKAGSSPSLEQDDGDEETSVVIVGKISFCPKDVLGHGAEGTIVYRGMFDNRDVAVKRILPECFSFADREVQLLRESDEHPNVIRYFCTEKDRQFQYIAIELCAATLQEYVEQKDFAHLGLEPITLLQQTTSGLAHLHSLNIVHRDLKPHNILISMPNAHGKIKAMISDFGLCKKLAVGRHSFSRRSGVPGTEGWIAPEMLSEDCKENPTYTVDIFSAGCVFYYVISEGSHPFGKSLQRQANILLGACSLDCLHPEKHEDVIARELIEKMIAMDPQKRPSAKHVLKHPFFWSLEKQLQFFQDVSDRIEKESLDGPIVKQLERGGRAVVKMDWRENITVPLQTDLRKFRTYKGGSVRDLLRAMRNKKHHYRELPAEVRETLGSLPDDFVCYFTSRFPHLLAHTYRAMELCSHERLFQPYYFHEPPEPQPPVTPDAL
Chain of kinases (KINOMEscan panel) (Homo sapiens, UniProt P36894) (P36894 24-532): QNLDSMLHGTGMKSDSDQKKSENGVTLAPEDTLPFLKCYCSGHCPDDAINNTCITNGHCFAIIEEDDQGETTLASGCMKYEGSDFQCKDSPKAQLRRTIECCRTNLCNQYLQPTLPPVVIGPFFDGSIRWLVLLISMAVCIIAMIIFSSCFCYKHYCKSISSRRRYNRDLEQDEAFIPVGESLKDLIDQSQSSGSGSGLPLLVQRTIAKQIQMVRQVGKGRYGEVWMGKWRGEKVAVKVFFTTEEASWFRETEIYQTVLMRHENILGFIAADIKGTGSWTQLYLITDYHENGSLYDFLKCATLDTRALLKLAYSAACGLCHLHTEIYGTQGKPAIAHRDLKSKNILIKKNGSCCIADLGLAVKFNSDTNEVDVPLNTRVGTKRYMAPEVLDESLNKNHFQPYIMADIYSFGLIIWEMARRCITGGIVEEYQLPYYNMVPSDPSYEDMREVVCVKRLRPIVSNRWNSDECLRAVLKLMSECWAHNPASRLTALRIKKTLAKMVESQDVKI

SMILES	KINOMEscan BMPR1A [1]	KINOMEscan VRK2 [2]	KINOMEscan ERN1 [3]	KINOMEscan EGFR(L858R) [4]	KINOMEscan CAMK2A [5]	KINOMEscan STK35 [6]	KINOMEscan NEK10 [7]	KINOMEscan CLK3 [8]	KINOMEscan EPHB2 [9]
Cc1cccc(-c2nc(Nc3ccc4nn(C)cc4c3)c3ccccc3n2)n1 [NK167]	13	11	0	0	0	0	11	6	12
Cc1cccc(-c2nc(N(C)c3ccc4ncsc4c3)c3ccccc3n2)n1 [NK-161]	4	25	11	2	0	0	17	4	15

From article PMC9851200, “Multiparameter phenotypic screening for endogenous TFEB and TFE3 translocation identifies novel chemical series modulating lysosome function” (Autophagy, 2022)
